Reference: ChEMBL document CHEMBL1150081, “Antimicrobial Agents from Tanacetum balsamita” (1995)
Converted amounts (≈) assume the structure as drawn. The source made the active and inactive calls. The calls are words filed in the database; no cut-off is given here.

Key:
Bacillus subtilis [1] = assay: Antibacterial activity against Bacillus subtilis ATCC 9372 after 2 days by broth dilution method; type: functional; settings: ATCC 9372, 48 h
[2] = tested on: Corynebacterium ammoniagenes; assay: Antibacterial activity against Brevibacterium ammoniagenes ATCC 6872 after 2 days by broth dilution method; type: functional; settings: ATCC 6872, 48 h
Staphylococcus aureus [3] = assay: Antibacterial activity against Staphylococcus aureus ATCC 12598 after 2 days by broth dilution method; type: functional; settings: ATCC 12598, 48 h
Streptococcus mutans [4] = assay: Antibacterial activity against Streptococcus mutans ATCC […] after 2 days by broth dilution method; type: functional; settings: 48 h
Cutibacterium acnes [5] = assay: Antibacterial activity against Propionibacterium acnes ATCC 11827 after 2 days by broth dilution method; type: functional; settings: ATCC 11827, 48 h
Escherichia coli [6] = assay: Antibacterial activity against Escherichia coli ATCC 9637 after 2 days by broth dilution method; type: functional; settings: ATCC 9637, 48 h
Pseudomonas aeruginosa [7] = assay: Antibacterial activity against Pseudomonas aeruginosa ATCC 10145 after 2 days by broth dilution method; type: functional; settings: ATCC 10145, 48 h
Klebsiella aerogenes [8] = assay: Antibacterial activity against Enterobacter aerogenes ATCC 13048 after 2 days by broth dilution method; type: functional; settings: ATCC 13048, 48 h
Saccharomyces cerevisiae [9] = assay: Antifungal activity against Saccharomyces cerevisiae ATCC 7754 after 2 days by broth dilution method; type: functional; settings: ATCC 7754, 48 h
Cyberlindnera jadinii [10] = assay: Antifungal activity against Candida utilis ATCC 9226 after 2 days by broth dilution method; type: functional; settings: Williopsis jadinii, ATCC 9226, 48 h
Proteus vulgaris [11] = assay: Antibacterial activity against Proteus vulgaris ATCC 13315 after 2 days by broth dilution method; type: functional; settings: ATCC 13315, 48 h
Malassezia [12] = assay: Antifungal activity against Pityrosporum ovale ATCC 14521 after 3 days by broth dilution method; type: functional; settings: ATCC 14521, 72 h
Penicillium chrysogenum [13] = assay: Antifungal activity against Penicillium chrysogenum ATCC 10106 after 5 days by broth dilution method; type: functional; settings: ATCC 10106, 120 h
[14] = tested on: Trichophyton mentagrophytes; assay: Antifungal activity against Trichophyton mentagrophytes ATCC 18748 after 5 days by broth dilution method; type: functional; settings: ATCC 18748, 120 h
[15] = tested on: Corynebacterium ammoniagenes; assay: Ratio of MBC to MIC for Brevibacterium ammoniagenes ATCC 6872; type: functional
Staphylococcus aureus [16] = assay: Ratio of MBC to MIC for Staphylococcus aureus ATCC 12598; type: functional
Streptococcus mutans [17] = assay: Ratio of MBC to MIC for Streptococcus mutans ATCC […]; type: functional
Cutibacterium acnes [18] = assay: Ratio of MBC to MIC for Propionibacterium acnes ATCC 11827; type: functional
Escherichia coli [19] = assay: Ratio of MBC to MIC for Escherichia coli ATCC 9637; type: functional
Pseudomonas aeruginosa [20] = assay: Ratio of MBC to MIC for Pseudomonas aeruginosa ATCC 10145; type: functional
Klebsiella aerogenes [21] = assay: Ratio of MBC to MIC for Enterobacter aerogenes ATCC 13048; type: functional
Proteus vulgaris [22] = assay: Ratio of MBC to MIC for Proteus vulgaris ATCC 13315; type: functional
Bacillus subtilis [23] = assay: Antibacterial activity against Bacillus subtilis ATCC 9372 up to 800 ug/ml after 2 days by broth dilution method; type: functional, organism-based
[24] = tested on: Corynebacterium ammoniagenes; assay: Antibacterial activity against Brevibacterium ammoniagenes ATCC 6872 up to 800 ug/ml after 2 days by broth dilution method; type: functional, organism-based
Staphylococcus aureus [25] = assay: Antibacterial activity against Staphylococcus aureus ATCC 12598 up to 800 ug/ml after 2 days by broth dilution method; type: functional, organism-based
Streptococcus mutans [26] = assay: Antibacterial activity against Streptococcus mutans ATCC […] up to 800 ug/ml after 2 days by broth dilution method; type: functional, organism-based
Cutibacterium acnes [27] = assay: Antibacterial activity against Propionibacterium acnes ATCC 11827 up to 800 ug/ml after 2 days by broth dilution method; type: functional, organism-based
Escherichia coli [28] = assay: Antibacterial activity against Escherichia coli ATCC 9637 up to 800 ug/ml after 2 days by broth dilution method; type: functional, organism-based
Pseudomonas aeruginosa [29] = assay: Antibacterial activity against Pseudomonas aeruginosa ATCC 10145 up to 800 ug/ml after 2 days by broth dilution method; type: functional, organism-based
Klebsiella aerogenes [30] = assay: Antibacterial activity against Enterobacter aerogenes ATCC 13048 up to 800 ug/ml after 2 days by broth dilution method; type: functional, organism-based
Saccharomyces cerevisiae [31] = assay: Antifungal activity against Saccharomyces cerevisiae ATCC 7754 up to 800 ug/ml after 2 days by broth dilution method; type: functional, organism-based
Cyberlindnera jadinii [32] = assay: Antifungal activity against Candida utilis ATCC 9226 up to 800 ug/ml after 2 days by broth dilution method; type: functional, organism-based
Proteus vulgaris [33] = assay: Antibacterial activity against Proteus vulgaris ATCC 13315 up to 800 ug/ml after 2 days by broth dilution method; type: functional, organism-based
Malassezia [34] = assay: Antifungal activity against Pityrosporum ovale ATCC 14521 up to 800 ug/ml after 3 days by broth dilution method; type: functional, organism-based
Penicillium chrysogenum [35] = assay: Antifungal activity against Penicillium chrysogenum ATCC 10106 up to 800 ug/ml after 5 days by broth dilution method; type: functional, organism-based
[36] = tested on: Trichophyton mentagrophytes; assay: Antifungal activity against Trichophyton mentagrophytes ATCC 18748 up to 800 ug/ml after 5 days by broth dilution method; type: functional, organism-based

Row | MIC (Bacillus subtilis [1]) [µg/mL] | MIC [2] [µg/mL] | MIC (Staphylococcus aureus [3]) [µg/mL] | MIC (Streptococcus mutans [4]) [µg/mL] | MIC (Cutibacterium acnes [5]) [µg/mL] | MIC (Escherichia coli [6]) [µg/mL] | MIC (Pseudomonas aeruginosa [7]) [µg/mL] | MIC (Klebsiella aerogenes [8]) [µg/mL] | MIC (Saccharomyces cerevisiae [9]) [µg/mL] | MIC (Cyberlindnera jadinii [10]) [µg/mL] | MIC (Proteus vulgaris [11]) [µg/mL] | MIC (Malassezia [12]) [µg/mL] | MIC (Penicillium chrysogenum [13]) [µg/mL] | MIC [14] [µg/mL] | SMILES | further results
1 | > 800 | > 800 | > 800 | > 800 | 800 (≈ 7990 µM) | > 800 | > 800 | > 800 | > 800 | > 800 | > 800 | 800 (≈ 7990 µM) | > 800 | > 800 | CCCCCC=O [HEXANAL] | 
2 | 200 (≈ 1720 µM) | 400 (≈ 3440 µM) | > 800 | > 800 | 400 (≈ 3440 µM) | > 800 | > 800 | > 800 | 400 (≈ 3440 µM) | 400 (≈ 3440 µM) | 400 (≈ 3440 µM) | 400 (≈ 3440 µM) | 400 (≈ 3440 µM) | 100 (≈ 861 µM) | CCCCCC(=O)O [HEXANOATE] | 
3 | 200 (≈ 1390 µM) | 400 (≈ 2770 µM) | 400 (≈ 2770 µM) | 1600 (≈ 11100 µM) | 200 (≈ 1390 µM) | > 800 | > 800 | > 800 | 200 (≈ 1390 µM) | 200 (≈ 1390 µM) | 200 (≈ 1390 µM) | 200 (≈ 1390 µM) | 100 (≈ 693 µM) | 50 (≈ 347 µM) | CCCCCCCC(=O)O [OCTANOIC ACID] | 
4 | 25 (≈ 162 µM) | 50 (≈ 324 µM) | 25 (≈ 162 µM) | 100 (≈ 648 µM) | 12.5 (≈ 81 µM) | > 800 | > 800 | > 800 | 25 (≈ 162 µM) | 25 (≈ 162 µM) | 25 (≈ 162 µM) | 25 (≈ 162 µM) | 12.5 (≈ 81 µM) | 3.13 (≈ 20.3 µM) | CCCCCCC/C=C/C=O [TRANS-2-DECENAL] | 

Further lines, the compound ahead of its results:

Row | SMILES | MIC (Bacillus subtilis [1]) [µg/mL] | MIC [2] [µg/mL] | MIC (Staphylococcus aureus [3]) [µg/mL] | MIC (Streptococcus mutans [4]) [µg/mL] | MIC (Cutibacterium acnes [5]) [µg/mL] | MIC (Escherichia coli [6]) [µg/mL] | MIC (Pseudomonas aeruginosa [7]) [µg/mL] | MIC (Klebsiella aerogenes [8]) [µg/mL] | MIC (Saccharomyces cerevisiae [9]) [µg/mL] | MIC (Cyberlindnera jadinii [10]) [µg/mL] | MIC (Proteus vulgaris [11]) [µg/mL] | MIC (Malassezia [12]) [µg/mL] | MIC (Penicillium chrysogenum [13]) [µg/mL] | MIC [14] [µg/mL] | further results
5 | CCCCC/C=C/C=C/C=O | 50 (≈ 328 µM) | 100 (≈ 657 µM) | 50 (≈ 328 µM) | 100 (≈ 657 µM) | 12.5 (≈ 82.1 µM) | > 800 | > 800 | > 800 | 25 (≈ 164 µM) | 25 (≈ 164 µM) | 25 (≈ 164 µM) | 12.5 (≈ 82.1 µM) | 12.5 (≈ 82.1 µM) | 1.56 (≈ 10.2 µM) | 
6 | CCCCC/C=C/C=O | 100 (≈ 792 µM) | 200 (≈ 1580 µM) | 200 (≈ 1580 µM) | 400 (≈ 3170 µM) | 50 (≈ 396 µM) | 200 (≈ 1580 µM) | > 800 | 200 (≈ 1580 µM) | 50 (≈ 396 µM) | 50 (≈ 396 µM) | 50 (≈ 396 µM) | 25 (≈ 198 µM) | 50 (≈ 396 µM) | 25 (≈ 198 µM) | 
7 | CCCCCCCC/C=C/C=O | 25 (≈ 149 µM) | 25 (≈ 149 µM) | 12.5 (≈ 74.3 µM) | 50 (≈ 297 µM) | 6.25 (≈ 37.1 µM) | > 800 | > 800 | > 800 | 25 (≈ 149 µM) | 12.5 (≈ 74.3 µM) | 12.5 (≈ 74.3 µM) | 25 (≈ 149 µM) | 6.25 (≈ 37.1 µM) | 1.56 (≈ 9.27 µM) | 
8 | CCCC/C=C/C=O | 200 (≈ 1780 µM) | 400 (≈ 3570 µM) | 400 (≈ 3570 µM) | 400 (≈ 3570 µM) | 100 (≈ 891 µM) | 400 (≈ 3570 µM) | 800 (≈ 7130 µM) | 400 (≈ 3570 µM) | 100 (≈ 891 µM) | 100 (≈ 891 µM) | 100 (≈ 891 µM) | 50 (≈ 446 µM) | 50 (≈ 446 µM) | 25 (≈ 223 µM) | Ratio [15]: <=2; Ratio (Staphylococcus aureus [16]): <=2; Ratio (Streptococcus mutans [17]): <=2; Ratio (Cutibacterium acnes [18]): <=2; Ratio (Escherichia coli [19]): <=2; Ratio (Pseudomonas aeruginosa [20]): <=2; Ratio (Klebsiella aerogenes [21]): <=2; Ratio (Proteus vulgaris [22]): <=2
9 | CCCCCCCCCCCCCCCC(=O)O |  |  |  |  |  |  |  |  |  |  |  |  |  |  | Activity (Bacillus subtilis [23]): inactive; Activity [24]: inactive; Activity (Staphylococcus aureus [25]): inactive; Activity (Streptococcus mutans [26]): inactive; Activity (Cutibacterium acnes [27]): inactive; Activity (Escherichia coli [28]): inactive; Activity (Pseudomonas aeruginosa [29]): inactive; Activity (Klebsiella aerogenes [30]): inactive; Activity (Saccharomyces cerevisiae [31]): inactive; Activity (Cyberlindnera jadinii [32]): inactive; Activity (Proteus vulgaris [33]): inactive; Activity (Malassezia [34]): inactive; Activity (Penicillium chrysogenum [35]): inactive; Activity [36]: inactive
10 | CCCCCC/C=C/C=O [2-NONENAL] | 50 (≈ 357 µM) | 100 (≈ 713 µM) | 50 (≈ 357 µM) | 100 (≈ 713 µM) | 25 (≈ 178 µM) | 200 (≈ 1430 µM) | > 800 | 200 (≈ 1430 µM) | 25 (≈ 178 µM) | 25 (≈ 178 µM) | 25 (≈ 178 µM) | 25 (≈ 178 µM) | 50 (≈ 357 µM) | 12.5 (≈ 89.1 µM) | 
11 | CC(C)=CC=O [3-METHYL-(E)-2-BUTENAL] | 800 (≈ 9510 µM) | > 800 | > 800 | > 800 | 800 (≈ 9510 µM) | > 800 | > 800 | > 800 | 800 (≈ 9510 µM) | 800 (≈ 9510 µM) | 800 (≈ 9510 µM) | 200 (≈ 2380 µM) | 50 (≈ 594 µM) | 200 (≈ 2380 µM) | 
